According to US8653089B2, “Heterocyclic compounds and methods of use” (F. Hoffmann-La Roche AG, priority 2011, dated 2014):

Columns and labels:
[1] = system: CD69 expression on CD20 positive cells in human whole blood stimulated by anti-IgM; assay: CD69 Whole Blood Assay; type: cell-based; conditions: concentration decreasing by 50% the percent CD69 positive cells that are also CD20 positive, 20 hours
Text: Human blood is obtained from healthy volunteers, with the following restrictions: 1 week drug-free, non-smokers. Blood (approximately 20 mls to test 8 compounds) is collected by venipuncture into Vacutainer tubes with sodium heparin.
Cynomolgus monkey blood is obtained courtesy of the LAT group from monkeys not previously exposed to, or after a washout period from, chemical dosing. Additional cyno blood draws may be collected during the course of pharmacokinetic or toxicology studies. Blood (25-30 mls for naïve monkeys or 3-4 mls from monkeys on studies requiring repeated draws) is collected by venipuncture into Vacutainer tubes with sodium heparin.
Solutions of Formula I compounds at 1000 or 2000 μM in PBS (20×), are diluted by three-fold serial dilutions in 10% DMSO in PBS for a nine point dose-response curve. An aliquot of 5.5 μl of each compound is added in duplicate to a 2 ml 96-well plate; 5.5 μl of 10% DMSO in PBS is added as control and no-stimulus wells. Human whole blood—HWB (100 μl) is added to each well. After mixing the plates are incubated at 37° C., 5% CO2, 100% humidity for 30 minutes. Goat F(ab′)2 anti-human IgM (10 μl of a 500 μg/ml solution, 50 μg/ml final) is added to each well (except the no-stimulus wells) with mixing and the plates are incubated for an additional 20 hours. At the end of the 20 hour incubation, samples are incubated with fluorescent labeled antibodies for 30 minutes, at 37° C., 5% CO2, 100% humidity. Include induced control, unstained and single stains for compensation adjustments and initial voltage settings. Samples are then lysed with Pharmingen Lyse according to the manufacturer's instructions. Samples are then transferred to a 96 well plate suitable to be run on the AMS 96 well system on the BD Calibur FACs machine. Data acquired and Mean Fluorescence Intensity values were obtained using Cell Quest Software. Results are initially analyzed by FACS analysis software (Flow Jo). […] The […] values are calculated by ActivityBase using Xlfit version 3, equation 201.

p110 delta = molecular target: T1, p110 delta (Homo sapiens, UniProt O00329); assay: PI3K isoform inhibition assay (fluorescence polarization), p110 delta; type: biochemical; conditions: p110 delta binding IC50, selected compounds from Table 1
T1 construct: purchased Upstate Group, Millipore; Dundee, UK
T1 sequence (O00329 whole entry, canonical isoform): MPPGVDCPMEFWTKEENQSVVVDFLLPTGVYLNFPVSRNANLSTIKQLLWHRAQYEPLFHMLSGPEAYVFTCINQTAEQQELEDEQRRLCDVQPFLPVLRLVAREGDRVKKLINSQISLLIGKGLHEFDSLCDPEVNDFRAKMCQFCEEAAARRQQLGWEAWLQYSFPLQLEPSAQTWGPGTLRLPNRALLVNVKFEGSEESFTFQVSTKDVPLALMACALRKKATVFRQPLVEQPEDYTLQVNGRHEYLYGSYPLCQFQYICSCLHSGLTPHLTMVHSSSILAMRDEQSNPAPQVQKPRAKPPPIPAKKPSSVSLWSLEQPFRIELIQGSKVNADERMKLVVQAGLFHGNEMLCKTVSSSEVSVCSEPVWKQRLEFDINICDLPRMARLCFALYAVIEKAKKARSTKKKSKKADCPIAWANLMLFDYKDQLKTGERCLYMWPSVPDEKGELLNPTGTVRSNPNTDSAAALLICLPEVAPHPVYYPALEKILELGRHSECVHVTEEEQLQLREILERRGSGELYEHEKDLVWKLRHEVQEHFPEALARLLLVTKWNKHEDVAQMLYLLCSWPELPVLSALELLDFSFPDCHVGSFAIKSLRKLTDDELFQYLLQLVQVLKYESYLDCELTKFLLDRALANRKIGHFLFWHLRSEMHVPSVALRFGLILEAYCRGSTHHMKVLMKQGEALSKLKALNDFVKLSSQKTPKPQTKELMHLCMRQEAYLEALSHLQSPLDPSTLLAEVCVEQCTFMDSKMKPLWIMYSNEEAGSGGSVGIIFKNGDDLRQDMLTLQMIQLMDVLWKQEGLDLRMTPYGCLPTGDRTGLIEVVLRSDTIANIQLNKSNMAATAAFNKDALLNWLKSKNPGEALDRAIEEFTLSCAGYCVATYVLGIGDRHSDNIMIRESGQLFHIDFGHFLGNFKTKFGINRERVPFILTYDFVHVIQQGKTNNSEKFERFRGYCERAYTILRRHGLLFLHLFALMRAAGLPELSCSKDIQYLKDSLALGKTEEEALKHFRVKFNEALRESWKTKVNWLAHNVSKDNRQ
T1 sequence (P27986 whole entry partner, canonical isoform): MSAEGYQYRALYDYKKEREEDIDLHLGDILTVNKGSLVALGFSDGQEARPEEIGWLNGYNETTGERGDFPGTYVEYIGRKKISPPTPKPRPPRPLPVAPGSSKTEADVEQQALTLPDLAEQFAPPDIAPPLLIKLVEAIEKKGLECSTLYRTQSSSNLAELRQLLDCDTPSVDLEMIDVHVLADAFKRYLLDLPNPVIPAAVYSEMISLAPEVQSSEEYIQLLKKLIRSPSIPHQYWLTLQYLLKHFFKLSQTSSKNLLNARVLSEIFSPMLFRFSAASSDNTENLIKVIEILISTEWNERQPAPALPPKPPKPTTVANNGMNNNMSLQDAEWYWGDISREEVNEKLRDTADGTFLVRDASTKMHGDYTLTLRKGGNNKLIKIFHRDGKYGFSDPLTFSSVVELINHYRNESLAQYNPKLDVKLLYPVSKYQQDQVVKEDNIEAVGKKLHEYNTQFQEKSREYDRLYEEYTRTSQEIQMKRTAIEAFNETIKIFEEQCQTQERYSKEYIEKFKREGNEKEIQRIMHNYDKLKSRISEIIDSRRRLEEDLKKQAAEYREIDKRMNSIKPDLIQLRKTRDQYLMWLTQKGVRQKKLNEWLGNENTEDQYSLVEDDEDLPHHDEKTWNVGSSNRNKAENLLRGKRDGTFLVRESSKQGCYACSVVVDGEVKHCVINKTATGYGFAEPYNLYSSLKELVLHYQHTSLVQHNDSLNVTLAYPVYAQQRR
Protocol: PI3K enzymatic activity was assayed by measuring the amount of product phosphatidylinositol 3,4,5-phosphate (PIP3) formed from substrate 4,5 phosphatidylinositol 4,5-phosphate (PIP2) using a fluorescence polarization displacement assay. The decrease in fluorescence polarization of a fluorescent PIP3 probe is measured as it is displaced from a PIP3-binding protein GRP-1detector by PI3K-catalyzed product. Assays were conducted in 384-well black Proxiplates in the presence of 10 mM Tris (pH 7.5), 50 mM NaCl, 4 mM MgCl2, 5% glycerol, 25 μM ATP, 10 μM PIP2 (Echelon Biosciences), 0.05% 3-[(3-cholamidopropyl)dimethylammonio]-1-propanesulfonate, 1 mM dithiothreitol, and 2% DMSO. The kinase reactions were initiated by the addition of 40 ng/mL p110α/p85α, 300 ng/mL p110β/p85α, 40 ng/mL p110γ, or 40 ng/mL p110δ/p85α (Upstate Group, Millipore; Dundee, UK), and 10 μM PIP2 (Echelon Biosciences) to the wells. The reactions were stopped at timepoints that yielded a fixed change in fluorescence polarization consistent with initial rate conditions (typically 30 minutes), by the addition of 12.5 mM EDTA, 100 nM GRP-1 detector, and 5 nM tetramethylrhodamine-labeled PIP3 (TAMRA-PIP3; Echelon Biosciences). After 60 minutes of incubation at room temperature to allow equilibration of labeled and unlabeled PIP3 binding, the parallel and perpendicular components of the fluorescence emissions from each sample were measured at an excitation wavelength of 530 nm and an emission wavelength of 590 nm using an Envision fluorescent plate reader with a rhodamine filter (PerkinElmer Life and Analytical Sciences; Wellesley, Mass.). The assay is capable of detecting 0.1-2.0 μM PIP3 product. The IC50 values were obtained by fitting the dose-dependent inhibition data to a 4-parameter equation using Assay Explorer software (MDL, San Ramon, Calif.). […]
(§1) Recombinant PI3K p110 isoforms alpha, beta, and delta may be prepared and purified according to US 2008/0275067 from recombinant PI3K heterodimeric complexes consisting of a p110 catalytic subunit and a p85 regulatory subunit overexpressed using the BAC-TO-BAC® HT baculovirus expression system (GIBCO/BRL), and then purified for use in biochemical assays. The four Class I PI 3-kinases are cloned into baculovirus vectors as follows:
p110 delta: A FLAG™-tagged (Eastman Kodak Co., U.S. Pat. No. 4,703,004; U.S. Pat. No. 4,782,137; U.S. Pat. No. 4,851,341) version of human p110.delta (Chantry et al., J. Biol. Chem. (1997) 272:19236-41) is subcloned using standard recombinant DNA techniques into the BamHI-XbaI site of the insect cell expression vector pFastbac HTb (Life Technologies, Gaithersburg, Md.), such that the clone is in frame with the His tag of the vector.

p110 alpha = molecular target: T2, p110 alpha (Homo sapiens, UniProt P42336); assay: PI3K isoform inhibition assay, p110 alpha (delta/alpha selectivity); type: biochemical; conditions: delta/alpha selectivity ratio
T2 construct: purchased Upstate Group, Millipore; Dundee, UK
T2 sequence (P42336 whole entry, canonical isoform): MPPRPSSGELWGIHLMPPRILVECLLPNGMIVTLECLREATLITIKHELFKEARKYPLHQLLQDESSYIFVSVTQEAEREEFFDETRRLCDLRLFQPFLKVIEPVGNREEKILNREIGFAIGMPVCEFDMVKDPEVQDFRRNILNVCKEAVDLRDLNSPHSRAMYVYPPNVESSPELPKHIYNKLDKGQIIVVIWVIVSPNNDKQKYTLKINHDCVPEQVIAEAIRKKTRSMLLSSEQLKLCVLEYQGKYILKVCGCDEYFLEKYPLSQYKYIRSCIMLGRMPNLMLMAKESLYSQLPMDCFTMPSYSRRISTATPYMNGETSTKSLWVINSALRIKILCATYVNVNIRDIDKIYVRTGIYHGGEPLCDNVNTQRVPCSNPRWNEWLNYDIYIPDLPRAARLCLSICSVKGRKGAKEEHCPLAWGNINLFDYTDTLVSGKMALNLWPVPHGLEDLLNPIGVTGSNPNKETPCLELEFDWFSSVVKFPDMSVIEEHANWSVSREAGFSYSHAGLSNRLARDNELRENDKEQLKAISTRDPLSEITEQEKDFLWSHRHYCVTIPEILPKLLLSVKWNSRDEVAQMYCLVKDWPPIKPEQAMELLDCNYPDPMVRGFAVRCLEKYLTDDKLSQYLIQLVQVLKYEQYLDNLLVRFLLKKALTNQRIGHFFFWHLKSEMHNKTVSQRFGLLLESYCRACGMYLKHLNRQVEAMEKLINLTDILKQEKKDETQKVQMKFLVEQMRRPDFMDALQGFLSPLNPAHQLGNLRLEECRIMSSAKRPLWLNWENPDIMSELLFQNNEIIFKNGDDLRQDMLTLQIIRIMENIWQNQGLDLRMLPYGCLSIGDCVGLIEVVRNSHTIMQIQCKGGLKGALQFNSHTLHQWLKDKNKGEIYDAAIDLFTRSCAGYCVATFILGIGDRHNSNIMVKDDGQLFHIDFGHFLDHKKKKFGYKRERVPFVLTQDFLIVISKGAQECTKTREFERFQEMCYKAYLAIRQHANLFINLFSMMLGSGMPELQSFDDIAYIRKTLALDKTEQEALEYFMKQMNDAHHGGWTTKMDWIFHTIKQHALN
T2 sequence (P27986 whole entry partner, canonical isoform): as the sequence (P27986 whole entry partner, canonical isoform) above
Protocol: PI3K enzymatic activity was assayed by measuring the amount of product phosphatidylinositol 3,4,5-phosphate (PIP3) formed from substrate 4,5 phosphatidylinositol 4,5-phosphate (PIP2) using a fluorescence polarization displacement assay. The decrease in fluorescence polarization of a fluorescent PIP3 probe is measured as it is displaced from a PIP3-binding protein GRP-1detector by PI3K-catalyzed product. Assays were conducted in 384-well black Proxiplates in the presence of 10 mM Tris (pH 7.5), 50 mM NaCl, 4 mM MgCl2, 5% glycerol, 25 μM ATP, 10 μM PIP2 (Echelon Biosciences), 0.05% 3-[(3-cholamidopropyl)dimethylammonio]-1-propanesulfonate, 1 mM dithiothreitol, and 2% DMSO. The kinase reactions were initiated by the addition of 40 ng/mL p110α/p85α, 300 ng/mL p110β/p85α, 40 ng/mL p110γ, or 40 ng/mL p110δ/p85α (Upstate Group, Millipore; Dundee, UK), and 10 μM PIP2 (Echelon Biosciences) to the wells. The reactions were stopped at timepoints that yielded a fixed change in fluorescence polarization consistent with initial rate conditions (typically 30 minutes), by the addition of 12.5 mM EDTA, 100 nM GRP-1 detector, and 5 nM tetramethylrhodamine-labeled PIP3 (TAMRA-PIP3; Echelon Biosciences). After 60 minutes of incubation at room temperature to allow equilibration of labeled and unlabeled PIP3 binding, the parallel and perpendicular components of the fluorescence emissions from each sample were measured at an excitation wavelength of 530 nm and an emission wavelength of 590 nm using an Envision fluorescent plate reader with a rhodamine filter (PerkinElmer Life and Analytical Sciences; Wellesley, Mass.). The assay is capable of detecting 0.1-2.0 μM PIP3 product. The IC50 values were obtained by fitting the dose-dependent inhibition data to a 4-parameter equation using Assay Explorer software (MDL, San Ramon, Calif.).
Alternatively, inhibition of PI3K was determined in a radiometric assay using purified, recombinant enzyme and ATP at a concentration of 1 uM. The Formula I compound was serially diluted in 100% DMSO. The kinase reaction was incubated for 1 h at room temperature, and the reaction was terminated by the addition of PBS. IC50 values were subsequently determined using sigmoidal dose-response curve fit (variable slope).
The same protocol may be used to establish IC50 values for p110α (alpha) PI3K binding.
as §1
p110 alpha: Similar to the method used for p110 delta, described above, a FLAG™-tagged version of p110 alpha (Volinia et al (1994) Genomics, 24(3):427-77) was subcloned in BamH1-HindIII sites of pFastbac HTb (Life Technologies) such that the clone was in frame with the His tag of the vector.

[2] = system: production of CD69 by B lymphocytes in human whole blood activated by crosslinking surface IgM; assay: CD69 human whole blood assay (Example 903), FACS; type: cell-based; conditions: Homo sapiens, Lymphocyte, B lymphocytes activated with goat F(ab')2 anti-human IgM, read-out: CD69 Hu Blood FACS IC50
Procedure, shortened: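 Human whole blood stimulated with goat F(ab′)2 anti-human IgM to crosslink surface IgM; compound inhibition of CD69 production by B lymphocytes read by FACS.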

CC[C@H](Nc1ncnc2nc[nH]c12)c1nc2ccc(F)cc2n1-c1ccccc1 [Example 160, (S)—N-(1-(6-fluoro-1-phenyl-1H-benzo[d]imidazol-2-yl)propyl)-7H-purin-6-amine]
IC50 [1]: 179 nM

Nc1ncnc2c1ccn2Cc1nc2ccccc2n1-c1ccccc1 [Example 139, 7-((1-phenyl-1H-benzo[d]imidazol-2-yl)methyl)-7H-pyrrolo[2,3-d]pyrimidin-4-amine]
IC50 (p110 delta): 302 nM

CC(=O)N1CCC(n2c([C@H](C)Nc3ncnc4[nH]cnc34)nc3ccccc32)CC1 [Example 115, (S)-1-(4-(2-(1-(9H-purin-6-ylamino)ethyl)-1H-benzo[d]imidazol-1-yl)piperidin-1-yl)ethanone]
IC50 (p110 delta): 13.7 nM | IC50 p110 alpha/IC50 p110 delta (greater than or equal to, ≧) (p110 alpha): ≥ 153

C[C@H](Nc1ncnc2[nH]cnc12)c1nc2ccccc2n1C1CCN(C2COC2)CC1 [Example 129, (S)—N-(1-(1-(1-(oxetan-3-yl)piperidin-4-yl)-1H-benzo[d]imidazol-2-yl)ethyl)-9H-purin-6-amine]
IC50 (p110 delta): 63.4 nM | IC50 p110 alpha/IC50 p110 delta (greater than or equal to, ≧) (p110 alpha): ≥ 33

CC(Nc1ncnc2[nH]cnc12)c1oc2ccccc2c1-c1ccccc1 (centres unmarked) [Example 103, N-(1-(3-phenylbenzofuran-2-yl)ethyl)-9H-purin-6-amine]
IC50 (p110 delta): 33 nM | IC50 p110 alpha/IC50 p110 delta (greater than or equal to, ≧) (p110 alpha): ≥ 64

CC(Nc1ncnc2[nH]cnc12)c1nc2ccccc2n1-c1ccccc1 (racemic) [Example 102, N-(1-(1-phenyl-1H-benzo[d]imidazol-2-yl)ethyl)-9H-purin-6-amine]
IC50 (p110 delta): 9.1 nM | IC50 p110 alpha/IC50 p110 delta (greater than or equal to, ≧) (p110 alpha): ≥ 230

Nc1ncnc2c1ncn2Cc1nc2ccccc2n1-c1ccccc1 [Example 106, 9-((1-phenyl-1H-benzo[d]imidazol-2-yl)methyl)-9H-purin-6-amine]
IC50 (p110 delta): 189 nM | IC50 p110 alpha/IC50 p110 delta (greater than or equal to, ≧) (p110 alpha): ≥ 11

C[C@H](Nc1ncnc2[nH]cnc12)c1nc2c(Cl)cccc2n1-c1ccccc1 [Example 120, (S)—N-(1-(4-chloro-1-phenyl-1H-benzo[d]imidazol-2-yl)ethyl)-9H-purin-6-amine]
IC50 (p110 delta): 4.46 nM | IC50 p110 alpha/IC50 p110 delta (greater than or equal to, ≧) (p110 alpha): ≥ 470

Cc1nn(Cc2nc3ccccc3n2-c2ccccc2)c2ncnc(N)c12 [Example 142, 3-methyl-1-((1-phenyl-1H-benzo[d]imidazol-2-yl)methyl)-1H-pyrazolo[3,4-d]pyrimidin-4-amine]
IC50 (p110 delta): 278 nM

CC(Nc1ncnc2[nH]cnc12)c1sc2ccccc2c1-c1ccccc1 (centres unmarked) [Example 101, N-(1-(3-phenylbenzo[b]thiophen-2-yl)ethyl)-9H-purin-6-amine]
IC50 (p110 delta): 52.3 nM | IC50 p110 alpha/IC50 p110 delta (greater than or equal to, ≧) (p110 alpha): ≥ 40

C[C@H](Nc1ncnc2sccc12)c1nc2ccccc2n1-c1ccccc1 [Example 143, (S)—N-(1-(1-phenyl-1H-benzo[d]imidazol-2-yl)ethyl)thieno[2,3-d]pyrimidin-4-amine]
IC50 (p110 delta): 87.9 nM | IC50 p110 alpha/IC50 p110 delta (greater than or equal to, ≧) (p110 alpha): ≥ 24

CC[C@H](Nc1ncnc2[nH]cnc12)c1nc2ccccc2n1-c1ccccc1 [Example 119, (S)—N-(1-(1-phenyl-1H-benzo[d]imidazol-2-yl)propyl)-9H-purin-6-amine]
IC50 (p110 delta): 1.59 nM | IC50 p110 alpha/IC50 p110 delta (greater than or equal to, ≧) (p110 alpha): ≥ 1320

C[C@H](Nc1ncnc2[nH]cnc12)c1nc2ccccc2n1C1CCCOC1 (stereo partly drawn) [Example 128, N-((1S)-1-(1-(tetrahydro-2H-pyran-3-yl)-1H-benzo[d]imidazol-2-yl)ethyl)-9H-purin-6-amine]
IC50 (p110 delta): 36.2 nM | IC50 p110 alpha/IC50 p110 delta (greater than or equal to, ≧) (p110 alpha): ≥ 58

Cc1nc(N)nc(N[C@@H](C)c2nc3ccc(F)cc3n2-c2ccccn2)c1C#N [Example 333, 2-Amino-4-[(S)-1-(6-fluoro-1-pyridin-2-yl-1H-benzoimidazol-2-yl)-ethylamino]-6-methyl-pyrimidine-5-carbonitrile]
IC50 [2]: 4.92 nM

Cc1c(F)ccc2nc([C@H](C)Nc3ncnc4[nH]cnc34)n(-c3ccccc3)c12 [Example 183, [(S)-1-(6-Fluoro-7-methyl-1-phenyl-1H-benzoimidazol-2-yl)-ethyl]-(9H-purin-6-yl)-amine]
IC50 [2]: 26.2 nM

CCC(Nc1ncnc2nc[nH]c12)c1nc2ccc(F)cc2n1-c1ccccc1 (centres unmarked) [Example 212, [1-(6-Fluoro-1-phenyl-1H-benzoimidazol-2-yl)-propyl]-(7H-purin-6-yl)-amine]
IC50 [2]: 55.5 nM
